From ChEMBL document CHEMBL1137988, “Design and synthesis of a nitrogen mustard derivative stabilized by apo-neocarzinostatin” (J Med Chem, 2004)

Assays:
[1] = Dissociation binding constant was determined for apoNCS binding site using fluorescence quenching titration assay
K562 = test: Cytotoxicity against human leukemia cell line K562; type: functional, cell-based
[2] = Dissociation binding constant was determined for apoNCS binding site using fluorescence quenching titration assay; Insufficient change in fluorescence

SMILES | Kd [1] [µM] | IC50 (K562) [µM] | Kd [2]
COc1cc(C)c2ccc(O)c(C(=O)OCCOC(=O)C(N)Cc3ccc(N(CCCl)CCCl)cc3)c2c1 (configuration not stated) | 47 | 7 | 
COc1cc(C)c2ccc(O)c(C(=O)OCCOC(=O)CCCc3ccc(N(CCCl)CCCl)cc3)c2c1 | > 1000 | 200 | 
N[C@@H](Cc1ccc(N(CCCl)CCCl)cc1)C(=O)O [MELPHALAN] |  | 30 | Insufficient change in fluorescence
O=C(O)CCCc1ccc(N(CCCl)CCCl)cc1 [CHLORAMBUCIL] |  | 95 | 
